Experimental data as given in ChEMBL document CHEMBL5303573, “Mapping human microbiome drug metabolism by gut bacteria and their genes” (Nature, 2019).

What was measured:
[1] = The drug is tested on Coprococcus comes strain: ATCC27758 for biotransformation. The drug concentrations were measured before and after a 12-h incubation by liquid-chromatography-coupled mass spectrometry (LC–MS); assay type: ADME; design: dose 2 uM, timepoint 0 vs 12 hours; details: 2 µM
[2] = The drug is tested on Clostridium symbiosum strain: ATCC14940 for biotransformation. The drug concentrations were measured before and after a 12-h incubation by liquid-chromatography-coupled mass spectrometry (LC–MS); details: 2 µM
[3] = The drug is tested on Edwardsiella tarda strain: ATCC23685 for biotransformation. The drug concentrations were measured before and after a 12-h incubation by liquid-chromatography-coupled mass spectrometry (LC–MS); details: 2 µM
[4] = The drug is tested on Providencia rettgeri strain: DSM1131 for biotransformation. The drug concentrations were measured before and after a 12-h incubation by liquid-chromatography-coupled mass spectrometry (LC–MS); assay type: ADME; design: dose 2 uM, timepoint 0 vs 12 hours; details: 2 µM
[5] = The drug is tested on Enterococcus faecalis strain: V583 for biotransformation. The drug concentrations were measured before and after a 12-h incubation by liquid-chromatography-coupled mass spectrometry (LC–MS); details: 2 µM
[6] = The drug is tested on Bacteroides cellulosilyticus strain: DSM14838 for biotransformation. The drug concentrations were measured before and after a 12-h incubation by liquid-chromatography-coupled mass spectrometry (LC–MS); details: 2 µM
[7] = The drug is tested on Ruminococcus torques strain: ATCC27756 for biotransformation. The drug concentrations were measured before and after a 12-h incubation by liquid-chromatography-coupled mass spectrometry (LC–MS); assay type: ADME; design: dose 2 uM, timepoint 0 vs 12 hours; details: 2 µM
[8] = bacteroides thetaiotaomicron, 12 h, 2 µM
Description: The drug is tested on Bacteroides thetaiotaomicron strain: 7330 for biotransformation. The drug concentrations were measured before and after a 12-h incubation by liquid-chromatography-coupled mass spectrometry (LC–MS)

[9] = The drug is tested on Bacteroides dorei strain: DSM17855 for biotransformation. The drug concentrations were measured before and after a 12-h incubation by liquid-chromatography-coupled mass spectrometry (LC–MS); details: phocaeicola dorei, 2 µM
[10] = bacteroides eggerthii, 12 h, 2 µM
Description: The drug is tested on Bacteroides eggerthii strain: DSM20697 for biotransformation. The drug concentrations were measured before and after a 12-h incubation by liquid-chromatography-coupled mass spectrometry (LC–MS)

[11] = The drug is tested on Bacteroides fragilis strain: ATCC43859 for biotransformation. The drug concentrations were measured before and after a 12-h incubation by liquid-chromatography-coupled mass spectrometry (LC–MS); details: 2 µM
[12] = The drug is tested on Bacteroides coprophilus strain: DSM18228 for biotransformation. The drug concentrations were measured before and after a 12-h incubation by liquid-chromatography-coupled mass spectrometry (LC–MS); details: 2 µM
[13] = The drug is tested on Blautia luti strain: DSM14534 for biotransformation. The drug concentrations were measured before and after a 12-h incubation by liquid-chromatography-coupled mass spectrometry (LC–MS); assay type: ADME; design: dose 2 uM, timepoint 0 vs 12 hours; details: 2 µM
[14] = The drug is tested on Bacteroides sp. WH2 strain: WH2 for biotransformation. The drug concentrations were measured before and after a 12-h incubation by liquid-chromatography-coupled mass spectrometry (LC–MS); details: bacteroides sp. wh2, 12 h, 2 µM
[15] = The drug is tested on Bacteroides xylanisolvens strain: DSM18836 for biotransformation. The drug concentrations were measured before and after a 12-h incubation by liquid-chromatography-coupled mass spectrometry (LC–MS); details: 2 µM
[16] = The drug is tested on Eubacterium ventriosum strain: ATCC27560 for biotransformation. The drug concentrations were measured before and after a 12-h incubation by liquid-chromatography-coupled mass spectrometry (LC–MS); assay type: ADME; design: dose 2 uM, timepoint 0 vs 12 hours; details: 2 µM
[17] = The drug is tested on Bacteroides ovatus strain: ATCC8483 for biotransformation. The drug concentrations were measured before and after a 12-h incubation by liquid-chromatography-coupled mass spectrometry (LC–MS); details: 2 µM
[18] = akkermansia muciniphila, 12 h, 2 µM
Description: The drug is tested on Akkermansia muciniphila strain: ATCC BAA-835 for biotransformation. The drug concentrations were measured before and after a 12-h incubation by liquid-chromatography-coupled mass spectrometry (LC–MS)

[19] = The drug is tested on Clostridium ramosum strain: DSM1402 for biotransformation. The drug concentrations were measured before and after a 12-h incubation by liquid-chromatography-coupled mass spectrometry (LC–MS); details: thomasclavelia ramosa, 2 µM

Row | Compound | Bacterial Biotransformation [1] | Bacterial Biotransformation [2] | Bacterial Biotransformation [3] | Bacterial Biotransformation [4] | Bacterial Biotransformation [5] | Bacterial Biotransformation [6] | Bacterial Biotransformation [7] | Bacterial Biotransformation [8] | Bacterial Biotransformation [9] | Bacterial Biotransformation [10] | Bacterial Biotransformation [11] | Bacterial Biotransformation [12] | Bacterial Biotransformation [13] | Bacterial Biotransformation [14] | Bacterial Biotransformation [15] | Bacterial Biotransformation [16] | Bacterial Biotransformation [17] | Bacterial Biotransformation [18] | Bacterial Biotransformation [19]
1 | CCOC(=O)[C@H](CCc1ccccc1)N[C@@H](C)C(=O)N1Cc2ccccc2C[C@H]1C(=O)O | Compound NOT metabolized | Compound metabolized | Compound NOT metabolized | Compound NOT metabolized | Compound NOT metabolized | Compound metabolized | Compound NOT metabolized | Compound metabolized | Compound metabolized | Compound metabolized | Compound metabolized | Compound metabolized | Compound NOT metabolized | Compound NOT metabolized | Compound metabolized | – | – | – | –
2 | CCOC(=O)[C@H](CCc1ccccc1)N[C@H]1CCc2ccccc2N(CC(=O)O)C1=O [BENAZEPRIL] | Compound NOT metabolized | Compound NOT metabolized | Compound NOT metabolized | – | Compound metabolized | Compound NOT metabolized | Compound NOT metabolized | Compound metabolized | Compound metabolized | Compound metabolized | Compound metabolized | Compound metabolized | – | Compound metabolized | Compound metabolized | Compound NOT metabolized | Compound metabolized | Compound NOT metabolized | Compound NOT metabolized
3 | NS(=O)(=O)c1cc2c(cc1Cl)N=C(CSCc1ccccc1)NS2(=O)=O [BENZTHIAZIDE] | – | Compound NOT metabolized | Compound NOT metabolized | Compound NOT metabolized | Compound NOT metabolized | Compound NOT metabolized | – | Compound NOT metabolized | – | Compound NOT metabolized | Compound NOT metabolized | Compound NOT metabolized | Compound NOT metabolized | Compound NOT metabolized | – | – | Compound NOT metabolized | Compound NOT metabolized | –
4 | CCCC1O[C@@H]2C[C@H]3[C@@H]4CCC5=CC(=O)C=C[C@]5(C)[C@H]4[C@@H](O)C[C@]3(C)[C@]2(C(=O)CO)O1 (stereo partly drawn) [BUDESONIDE] | Compound NOT metabolized | Compound NOT metabolized | Compound NOT metabolized | – | Compound NOT metabolized | Compound NOT metabolized | Compound NOT metabolized | Compound NOT metabolized | Compound metabolized | Compound metabolized | Compound metabolized | Compound NOT metabolized | Compound NOT metabolized | Compound NOT metabolized | – | Compound NOT metabolized | Compound NOT metabolized | Compound NOT metabolized | –
5 | CCCC(C)(COC(N)=O)COC(=O)NC(C)C (stereo not drawn) [CARISOPRODOL] | Compound NOT metabolized | Compound NOT metabolized | – | – | Compound NOT metabolized | Compound metabolized | Compound NOT metabolized | Compound metabolized | Compound metabolized | – | Compound metabolized | Compound metabolized | – | Compound NOT metabolized | Compound metabolized | Compound metabolized | – | Compound NOT metabolized | Compound NOT metabolized
6 | O=C(O)COCCN1CCN(C(c2ccccc2)c2ccc(Cl)cc2)CC1 (stereo not drawn) [CETIRIZINE] | Compound NOT metabolized | Compound NOT metabolized | Compound NOT metabolized | – | Compound NOT metabolized | Compound metabolized | Compound NOT metabolized | Compound metabolized | Compound metabolized | Compound metabolized | Compound metabolized | Compound metabolized | Compound NOT metabolized | Compound NOT metabolized | Compound metabolized | Compound NOT metabolized | – | Compound NOT metabolized | Compound NOT metabolized
7 | COC(=O)[C@H](c1ccccc1Cl)N1CCc2sccc2C1.O=S(=O)(O)O [CLOPIDOGREL BISULFATE] | Compound NOT metabolized | Compound NOT metabolized | Compound NOT metabolized | Compound NOT metabolized | Compound NOT metabolized | Compound NOT metabolized | Compound NOT metabolized | Compound metabolized | Compound metabolized | Compound metabolized | Compound metabolized | Compound metabolized | Compound NOT metabolized | Compound NOT metabolized | Compound metabolized | Compound NOT metabolized | Compound metabolized | Compound NOT metabolized | –
8 | c1ccc([C@H]2CN3CCSC3=N2)cc1 [LEVAMISOLE] | Compound metabolized | Compound metabolized | Compound metabolized | Compound NOT metabolized | Compound NOT metabolized | Compound NOT metabolized | Compound NOT metabolized | Compound metabolized | Compound metabolized | Compound metabolized | Compound metabolized | Compound metabolized | Compound NOT metabolized | Compound NOT metabolized | Compound metabolized | Compound NOT metabolized | Compound metabolized | – | –
9 | Cc1nc2n(c(=O)c1CCN1CCC(c3noc4cc(F)ccc34)CC1)CCCC2 [RISPERIDONE] | Compound metabolized | Compound metabolized | Compound NOT metabolized | Compound NOT metabolized | Compound metabolized | Compound NOT metabolized | Compound NOT metabolized | Compound NOT metabolized | – | – | Compound metabolized | Compound NOT metabolized | Compound metabolized | Compound NOT metabolized | Compound NOT metabolized | Compound NOT metabolized | Compound NOT metabolized | Compound NOT metabolized | –
